Test results taken from patent US6569846B1, “Palladium-substituted bacteriochlorophyll derivatives and use thereof” (Yeda Research and Development Co. Ltd., priority 1998, dated 2003).

How the values were obtained:
[1] = Stability of Pd-BPheid solutions by HPLC profile; type: physicochemical
Protocol: A reverse phase HPLC method was developed to characterize the impurity profile and quantify the Palladium-BPheid.
Solutions of Pd-BPheid stored in acetone at −20° C. were stable for at least 2-month period.

[2] = tested on: L1210 murine leukemia cells; assay: In vitro phototoxicity on L1210 cells (MTT); type: cell-based; conditions: 1 μM, 30 min at 37° C.
Protocol: (§1) (i) Cell lines. The murine leukemia cell line (L1210) was maintained in suspension culture using Fischer's medium supplemented with 10% horse serum, 1 mM glutamine, 1 mM mercaptoethanol and gentamicin. The RIF (Radiation induced Fibrosarcoma) tumor was maintained as specified by Twentyman et al. (1980, “A new mouse tumor model system (RIF-1) for comparison of end-point studies”, J. Natl. Cancer Inst., 64, 595-604). Cultures were grown in Weymouth's medium containing 10% fetal calf serum and gentamycin.
(ii) In vitro phototoxicity. For studies on phototoxicity involving L1210 and RIF cells, light was provided by a 600 watt quartz-halogen source filtered with 10 cm of water and a 850 nm cut-off filter to remove IR. […] […] The cells were then washed free from the sensitizer, and transferred to fresh media. Irradiations were carried out at 10° C. For some studies, the cells were then labeled with fluorescent probes and sites of photodamage were assessed. In other studies, the cells were then incubated for 60 min at 37° C. in fresh medium to allow apoptosis to proceed. Viability studies were carried out using 96-well plates and a 72-hour MTT assay, in quadruplicate.
(§2) (iii) Cell Viability. Cell survival was assessed by the MTT reaction carried out 3 days after plating of 1,000-50,000 cells in 96 well plates. […] Absorbance at x nm was determined with a BioRad Plate reader. […]

[3] = tested on: RIF (Radiation induced Fibrosarcoma) line; assay: In vitro phototoxicity on RIF cells (MTT); type: cell-based, mouse
Protocol: as §1
(ii) In vitro phototoxicity. For studies on phototoxicity involving L1210 and RIF cells, light was provided by a 600 watt quartz-halogen source filtered with 10 cm of water and a 850 nm cut-off filter to remove IR. The bandwidth was further confined to 660±5 nm by an interference filter (Oriel). Cells in suspension (L1210) or adhering to 24 mm diameter cover slips were incubated in growth medium (with 20 mM HEPES pH 7 replacing NaHCO3 for added buffering capacity) for 15 min in the presence of specified levels of sensitizers. […] For some studies, the cells were then labeled with fluorescent probes and sites of photodamage were assessed. […]
as §2

[4] = tested on: mouse leukemia L1210 cells; assay: Sites of photodamage (fluorescent probes); type: cell-based
Protocol: (ii) In vitro phototoxicity. For studies on phototoxicity involving L1210 and RIF cells, light was provided by a 600 watt quartz-halogen source filtered with 10 cm of water and a 850 nm cut-off filter to remove IR. The bandwidth was further confined to 660±5 nm by an interference filter (Oriel). Cells in suspension (L1210) or adhering to 24 mm diameter cover slips were incubated in growth medium (with 20 mM HEPES pH 7 replacing NaHCO3 for added buffering capacity) for 15 min in the presence of specified levels of sensitizers. The cells were then washed free from the sensitizer, and transferred to fresh media. Irradiations were carried out at 10° C. For some studies, the cells were then labeled with fluorescent probes and sites of photodamage were assessed. In other studies, the cells were then incubated for 60 min at 37° C. in fresh medium to allow apoptosis to proceed. Viability studies were carried out using 96-well plates and a 72-hour MTT assay, in quadruplicate.

[5] = tested on: HDL, LDL, Albumin fractions of human serum; assay: Plasma lipoprotein binding (density-gradient centrifugation); type: in vitro ADME; conditions: 3 μM, 30 min at 37° C.
Protocol: (iv) Lipoprotein binding: Binding of Pd-BPheid to protein and lipoprotein compound of control human plasma was determined. Incubation of 250 μl plasma sample with 3 μM of the compound for 30 min at 37° C. Lipoprotein and protein components were then separated by density-gradient centrifugator. The gradients were fractionated, fractions diluted into 3 ml of 10 mM Triton X-100 detergent or of fluorescence at 750-800 nm determined upon excitation at 400 nm.

[6] = tested on: HT29 human colon adenocarcinoma; assay: In vivo phototoxicity on grafted HT29 tumors (tumoral index); set-up: species or system Swiss nude mice; conditions: for tumor growth as compared to controls / duration of decrease of tumor index: 15 mg/kg i.v., 763 nm
Protocol: Animal and tumor model: Solid tumor tissue (diameter 2 cm) removed from donor mouse immediately after death was mechanically crushed in 1 ml of 0.9% saline solution and the solution (0.1 ml) was injected s.c. into one hind leg of each mouse. Mice were included for experiments when the tumor diameter was 8-10 mm. Tumors were grafted s.c. in 8-week aged Swiss nude mice 10 days before experiment.
Phototoxic studies: 0.15 ml Pd-BPheid was injected i.v. at 15 mg/kg. Mice were anesthetized with thiopental at 40 mg/kg just before irradiation. At 30 min, 1 h, 4 h or 24 h after injection, mice were irradiated with a titanium sapphire laser at 300 mW/cm^2, mean diameter were measured to adjust time irradiation to obtain 200 or 300 J/cm^2. Control mice not injected with Pd-BPheid were also irradiated in same conditions. The tumor growth delay induced by PDT was analyzed by equivalence with tests realized in experimental radiotherapy. For in vivo studies and for each separate experiment, all results were the mean of 2 or 3 separate experiments and for each separate experiment, 2 mice were used for each experimental condition.
Concerning tumoral growth studies, results are expressed as tumoral index variations with reference (=1) corresponding to tumoral index from non-treated cells. The tumoral index was calculated as follows:
Tumoral index=(largest tumoral diameter+perpendicularly opposite diameter)/2.

M2R mouse melanoma cells = assay: Phototoxicity on M2R cells (Example 10, [3H]-thymidine incorporation); type: cell-based; conditions: pigments dissolved directly in culture medium containing 10% serum
Protocol: The diluted pigments were added and the cells were incubated in the dark for four hours at 37° C. Prior to illumination, the cells were washed once and replaced with fresh culture medium. The plates were then illuminated from the bottom for 10 minutes at room temperature and placed in the culture incubator at 37° C. in the dark. […] The following control systems were used: Dark control—untreated cells kept in the dark; Light control—cells not treated with sensitizer that were illuminated; Dark toxicity—cells treated with pigment but kept in the dark.

Compound: CC[C@H]1C2=NC(=Cc3c(C(C)=O)c(C)c4[n]3[Pd][n]3c(c(C)c5c3=C(C3=NC(=C4)[C@@H](C)[C@@H]3CCC(=O)O)[C@@H](C(=O)OC)C5=O)=C2)[C@@H]1C [Pd-BPheid, Pd-bacteriopheophorbide a]
- change in the HPLC profile ([1]; stock solution at room temperature for 18 hours): no change in the HPLC profile
- period for which solutions were stable ([1]; stored in acetone at −20° C.): at least 2 month
- cell killing ([2]; 75 mJ/cm^2 light at 760±5 nm): 50%
- dose of light resulting in 50% cell killing ([2]; light at 760±5 nm): 75 mJ/cm^2
- light dose required for a similar degree (50%) of cell killing [3]: 215 mJ/cm^2
- photodamage to the plasma membrane or to lysosomes [4]: no detectable photodamage
- site of photodamage [4]: highly specific mitochondrial photosensitizers
- plasma lipoprotein binding, rank order of fractions [5]: HDL>LDL>>>Albumin
- tumor growth as compared to controls ([6]; 200 J/cm^2, 30 min and 4 h after injection): tumor growth decrease
- duration of decrease of tumor index ([6]; 200 J/cm^2, 1 h and 24 h after injection): up to 7 days
- tumor growth as compared to controls ([6]; 300 J/cm^2, 30 min and 24 h after injection): tumor growth decrease
- duration of decrease of tumor index ([6]; 300 J/cm^2, 1 h and 4 h after injection): up to 7 days
- wavelength of maximum tumor growth decrease ([6]; 300 J/cm^2, 1 h after injection): 763 nm
- duration of tumor growth decrease as compared to controls ([6]; 300 J/cm^2, 1 h after injection, 753 nm and 763 nm): up to 12 days
- duration of tumor growth decrease as compared to controls ([6]; 300 J/cm^2, 1 h after injection, 773 nm): up to 5 days
- wavelength of maximum tumor growth decrease ([6]; 300 J/cm^2, 24 h after injection): 773 nm
- duration of tumor growth decrease as compared to controls ([6]; 300 J/cm^2, 24 h after injection, 753 nm): up to 4 days
- duration of tumor growth decrease as compared to controls ([6]; 300 J/cm^2, 24 h after injection, 763 nm and 773 nm): up to 12 days
- most efficient delay between injection and illumination ([6]; 773 nm wavelength): 24 h
- most efficient delay between injection and illumination ([6]; at 764 nm): one hour
- optimal wavelength of irradiation ([6]; summary of the study): 773 nm
- phototoxic activity (M2R mouse melanoma cells): fully active
